Data taken from patent US10144746B2 (GLOBAL BLOOD THERAPEUTICS, INC., priority 2015, dated 2018).
Where a name gives a salt, the structure may show the parent alone.

These compounds were tested against Human plasma kallikrein (Homo sapiens (Human), UniProt P03952) (assay: In vitro plasma kallikrein inhibition assay (chromogenic substrate D-Pro-Phe-Arg-pNa, absorbance at 405 nm, IC50 determination)). Settings: not given.
Sequence of Human plasma kallikrein (P03952 391-638): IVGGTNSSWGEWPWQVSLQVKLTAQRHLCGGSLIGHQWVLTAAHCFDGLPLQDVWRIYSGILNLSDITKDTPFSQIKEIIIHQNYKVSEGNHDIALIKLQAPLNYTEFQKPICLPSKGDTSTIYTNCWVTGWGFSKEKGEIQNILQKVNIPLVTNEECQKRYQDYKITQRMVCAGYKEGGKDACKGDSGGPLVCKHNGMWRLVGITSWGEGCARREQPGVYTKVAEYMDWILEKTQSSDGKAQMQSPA
Sequence of Human plasma kallikrein (P03952 20-390 partner): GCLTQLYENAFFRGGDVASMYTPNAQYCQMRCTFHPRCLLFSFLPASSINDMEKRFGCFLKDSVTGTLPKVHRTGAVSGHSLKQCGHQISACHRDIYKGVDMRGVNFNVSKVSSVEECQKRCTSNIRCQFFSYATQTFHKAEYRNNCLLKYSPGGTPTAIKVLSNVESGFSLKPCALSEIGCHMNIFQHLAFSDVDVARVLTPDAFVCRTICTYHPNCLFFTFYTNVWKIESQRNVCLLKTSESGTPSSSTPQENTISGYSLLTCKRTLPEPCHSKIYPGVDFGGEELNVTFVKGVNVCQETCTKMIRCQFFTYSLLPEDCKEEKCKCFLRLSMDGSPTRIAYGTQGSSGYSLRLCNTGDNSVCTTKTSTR
Assay type: biochemical
Method: In Vitro Plasma Kallikrein Inhibition Assay
The chromogenic substrate D-Pro-Phe-Arg-pNa, 2HCl (BIOPHEN CS-31(02) from Hyphen BioMed, Neuville-Sur-oise, France) was dissolved in 5 mL deionized water and stored at 4° C. […] All other chemicals were of analytical grade.
A stock solution of 7 μM in 50% glycerol was stored at −20° C.
Enzyme reactions were conducted in “assay buffer” comprised of 20 mM HEPES at pH 7.4, 150 mM NaCl, 0.1% PEG-8000 and 0.01% Triton X-100.
Both enzyme and substrate were diluted in assay buffer.
Plate measurements were conducted using a SPECTROStar Nano reader (BMG Labtech, San Francisco, Calif., USA). […] We used discrete wavelength, precise, kinetic reads of 15 cycles with a 60 sec cycle time.
Determination of IC50 values
The test compound was dissolved in 100% DMSO. The compounds were serially diluted in DMSO in a 7 point dose response. For the assays, 66.5 μL of protease solution (protease in assay buffer) was added per well followed by the addition of 8.5 μL of compound in 100% DMSO. […] After 30 min. incubation at room temperature on an orbital shaker, the reactions were started by the addition of 10 μL substrate solution (in assay buffer, final assay concentration was 600 uM). After the addition of the substrate solution the final DMSO concentration was 10%. The plate was placed again on the shaker for 5 sec, spun at 2000 rpm for 5 sec and read on the spectrophotometer. […] The IC50 value was calculated from the plot of rate vs. inhibitor concentration by a 4 parameter logistic equation: y=A+((B−A)/([…]))
where y is the rate at the inhibitor concentration, x. A is the minimum y value at the highest inhibitor concentration and B is the y value in the absence of inhibitor, C is the IC50 value and D is the slope factor. The curve fitting was conducted with the non-linear regression routine of the analysis software XLfit (IDBS, version 5.3.1).
For “(±)-N-[(6-amino-2,4- dimethylpyridin-3-yl)-methyl]- 12-(2,4-difluorophenyl)-15- methyl-15-azatetracyclo [6.6.1.0^2,^7.0^9,1^4]pentadeca- 2,4,6,9,11,13- hexaene-4-carboxamide and (±)-N-[(6-amino-2,4- dimethylpyridin-3-yl)methyl]- 11-(2,4-difluorophenyl)-15- methyl-15-azatetra-cyclo [6.6.1.0^2,^7.0^9,1^4]pentadeca- 2,4,6,9,11,13-hexaene-4- carboxamide [Example 115]”, the “KLKB1 pIC50” value was 4.

Same assay, conditions: read-out: KLKB1 pIC50 (converted)
With Cc1cc(N)nc(C)c1CNC(=O)c1ccc2c(c1)[C@@H]1O[C@H]2c2ccc(-c3cn4ccccc4n3)cc21 (single isomer, unassigned) [Example 252] the IC50 was 93.3 nM.
N=C(N)c1cc(F)c(CNC(=O)c2ccc3c(c2)[C@@H]2O[C@H]3c3ccc(-n4cccn4)cc32)c(F)c1 (single isomer, unassigned) [Example 286] showed an IC50 of 2.45 nM.
CCN(C(=O)c1ccccc1)c1ccc2c(c1)[C@H]1O[C@@H]2c2ccc(C(=O)NCc3c(C)cc(N)nc3C)cc21 (single isomer, unassigned) [Example 234] gave an IC50 of 10000 nM.
Cc1cc(N)nc(C)c1CNC(=O)c1ccc2c(c1)C1OC2c2ccc(-c3ncccc3F)cc21 (racemic) [Example 110, trifluoroacetate salt] was tested, and the IC50 was 162 nM.
For COc1ccncc1-c1ccc2c(c1)C1OC2c2ccc(C(=O)NCc3c(C)cc(N)nc3C)cc21 (racemic) [Example 167, (±)-N-[(6-amino-2,4-dimethylpyridin-3-yl)-methyl]-12-(4-methoxypyridin-3-yl)-15-oxatetracyclo[6.6.1.0^2,^7.0^9,1^4] pentadeca-2,4,6,9,11,13-hexaene-4-carboxamide], the IC50 was 115 nM.
In the case of COc1ccc(Oc2ccc3c(c2)C2OC3c3ccc(C(=O)NCc4c(C)cc(N)nc4C)cc32)cn1 (racemic) [Example 152, (±)-N-[(6-amino-2,4-dimethylpyridin-3-yl)-methyl]-12-[(6-methoxypyridin-3-yl)oxy]-15-(oxatetracyclo[6.6.1.0^2,^7.0^9,1^4]pentadeca-2,4,6,9,11,13-hexaene-4-carboxamide], the IC50 is reported as 1260 nM.
With N/C(=N\O)c1ccc(CNC(=O)c2ccc3c(c2)C2OC3c3ccc(-c4ccc(F)cc4F)cc32)cc1F (racemic) [Example 197, (±)-12-(2,4-difluorophenyl)-N-({3-fluoro-4-[N′-hydroxycarbamimidoyl]phenyl}methyl)-15-oxatetracyclo[6.6.1.0^2,^7.0^9,1^4] pentadeca-2,4,6,9,11,13-hexaene-4-carboxamide] the IC50 was 100000 nM.
In the case of N=C(N)c1ccc(CNC(=O)c2ccc3c(c2)[C@@H]2O[C@H]3c3ccc(-c4ccccc4F)cc32)c(F)c1 (single isomer, unassigned) [Example 290], the IC50 is reported as 1 nM.
Work on Cc1cc(N)nc(C)c1CNC(=O)c1ccc2c(c1)[C@@H]1O[C@H]2c2ccc(-c3ccc(Cl)cc3F)cc21 (single isomer, unassigned) [Example 174] yielded an IC50 of 46.8 nM.
Cc1cc(N)nc(C)c1CNC(=O)c1ccc2c(c1)C1OC2c2ccc(Nc3ccn(C)n3)cc21 (racemic) [Example 51] showed an IC50 of 933 nM.
Cc1cc(CNC(=O)c2ccc3c(c2)C2OC3c3ccc(-c4ccc(F)cc4F)cc32)c(C)nc1N (racemic) [Example 166, (±)-N-[(6-amino-2,5-dimethylpyridin-3-yl)-methyl]-12-(2,4-difluorophenyl)-15-oxatetracyclo[6.6.1.0^2,^7.0^9,1^4] pentadeca-2,4,6,9,11,13-hexaene-4-carboxamide] was tested, and the IC50 was 6760 nM.
Compound Cc1cc(N)nc(C)c1CNC(=O)c1ccc2c(c1)C1OC2c2ccc(Oc3ccc(F)cc3F)cc21 (racemic) [Example 120, (±)-N-[(6-amino-2,4-dimethylpyridin-3-yl)-methyl]-12-(2,4-difluorophenoxy)-15-oxatetra-cyclo[6.6.1.0^2,^7.0^9,1^4] pentadeca-2,4,6,9,11,13-hexaene-4-carboxamide] has an IC50 of 676 nM.
Work on Cc1ccc(-c2ccc3c(c2)[C@H]2O[C@@H]3c3ccc(C(=O)NCc4ccc(C(=N)N)cc4)cc32)o1 (single isomer, unassigned) [Example 223] yielded an IC50 of 33.9 nM.
Nc1cc(NC(=O)c2ccc3c(c2)[C@@H]2O[C@H]3c3ccc(-c4ccc(F)cc4F)cc32)ccn1 (single isomer, unassigned) [Example 347] showed an IC50 of 100000 nM.
Cc1ccc2c(N)nccc2c1CNC(=O)c1ccc2c(c1)[C@@H]1O[C@H]2c2ccc(-c3ccccc3F)cc21 (single isomer, unassigned) [Example 299] showed an IC50 of 30.9 nM.
Compound Cc1cccc(Oc2ccc3c(c2)C2OC3c3ccc(C(=O)NCc4c(C)cc(N)nc4C)cc32)c1 (racemic) [Example 159, (±)-N-[(6-amino-2,4-dimethylpyridin-3-yl)-methyl]-12-(3-methylphenoxy)-15-oxatetracyclo[6.6.1.0^2,^7.0^9,1^4] pentadeca-2,4,6,9,11,13-hexaene-4-carboxamide] has an IC50 of 1860 nM.
Cc1cc(CN)cc(C)c1CNC(=O)c1ccc2c(c1)C1OC2c2ccc(-c3ccc(F)cc3F)cc21 (racemic) [Example 147, (±)-N-{[4-(aminomethyl)-2,6-dimethylphenyl]-methyl}-12-(2,4-difluorophenyl)-15-oxatetracyclo[6.6.1.0^2,^7.0^9,1^4] pentadeca-2,4,6,9,11,13-hexaene-4-carboxamide] showed an IC50 of 372 nM.
With Cc1cc(N)nc(C)c1CNC(=O)c1cc(F)c2c(c1)C1OC2c2c(C)cc(-c3ccc(F)cc3)cc21 (racemic) [Example 397, (±)-N-(6-amino-2,4-dimethylpyridin-3-yl) methyl]-6-fluoro-12-(4-fluorophenyl)-10-methyl-15-oxatetracyclo[6.6.1.0^2,^7.0^9,1^4] pentadeca-2(7),3,5,9(14),10,12-hexaene-4-carboxamide] the IC50 was 20 nM.
Cc1cc(CN)cc(C)c1CNC(=O)c1ccc2c(c1)C1OC2c2ccc(-c3ccc(Cl)c(F)c3F)cc21 (racemic) [Example 125, (±)-N-{[4-(aminomethy])-2,6-dimethylphenyl]-methyl}-12-(4-chloro-2,3-difluorophenyl)-15-oxatetracyclo-[6.6.1.0^2,^7.0^9,1^4]pentadeca-2,4,6,9,11,13-hexaene-4-carboxamide] was tested, and the IC50 was 661 nM.
Cc1ccc(-c2ccc3c(c2)[C@H]2O[C@@H]3c3ccc(C(=O)NCc4cccc5c(N)nccc45)cc32)c(C#N)c1 (single isomer, unassigned) [Example 216] was tested, and the IC50 was 15.8 nM.
With N=C(N)c1ccc(CNC(=O)c2ccc3c(c2)C2OC3c3ccc(-c4ccccc4)cc32)cc1 (racemic) [Example 189, (±)-N-[(4-carbamimidoylphenyl)methyl]-12-phenyl-15-oxatetracyclo[6.6.1.0^2,^7.0^9,1^4]-pentadeca-2,4,6,9,11,13-hexaene-4-carboxamide] the IC50 was 4.57 nM.
In the case of Cc1cc(N)nc(C)c1CNC(=O)c1ccc2c(c1)C1OC2c2ccc(-c3ccc(F)c(C(F)(F)F)c3)cc21 (racemic) [Example 121, (±)-N-[(6-amino-2,4-dimethylpyridin-3-yl)-methyl]-12-[4-fluoro-3-(trifluoromethyl)phenyl]-15-oxatetracyclo [6.6.1.0^2,^7.0^9,1^4]pentdeca-2,4,6,9,11,13-hexaene-4-carboxamide], the IC50 is reported as 437 nM.
Cc1cc2c(cc1C)C1OC2c2ccc(C(=O)NCc3ccc(C(=N)N)cc3)cc21 (racemic) [Example 317, (±)-N-[(4-carbamimidoylphenyl)methyl]-11,12-dimethyl-15-oxatetracyclo[6.6.1.0^2,^7.0^9,1^4]-pentadeca-2,4,6,9(14),10,12-hexaene-4-carboxamide] showed an IC50 of 28.8 nM.
COc1ccc(CNC(=O)c2ccc3c(c2)[C@@H]2O[C@H]3c3ccc(-c4ccccc4F)cc32)cc1 (single isomer, unassigned) [Example 253] was tested, and the IC50 was 100000 nM.
Work on CCN(c1ccc2c(c1)[C@H]1O[C@@H]2c2ccc(C(=O)NCc3c(C)cc(N)nc3C)cc21)c1ccccc1F (single isomer, unassigned) [Example 239] yielded an IC50 of 234 nM.
For Cc1cc(N)nc(C)c1CNC(=O)c1ccc2c(c1)C1OC2c2cc3c(cc21)C(=O)N(C)C3=O (racemic) [Example 318, (±)-N-[(6-amino-2,4-dimethyl-pyridin-3-yl)methyl]-6-methyl-5,7-dioxo-18-oxa-6-azapentacyclo [9.6.1.0^2,1^0.0^4,^8.0^12,1^4]octadeca-2(10),3,8,12,14,16-hexaene-14-carboxamide], the IC50 was 17.4 nM.
Work on N=C(N)c1cc(F)c(CNC(=O)c2ccc3c(c2)[C@@H]2O[C@H]3c3ccc(-c4ccc(F)cc4F)cc32)c(F)c1 (single isomer, unassigned) [Example 256] yielded an IC50 of 0.759 nM.
Compound CCc1cc(N)nc(C)c1CNC(=O)c1ccc2c(c1)C1OC2c2ccc(-c3c(C)cc(F)cc3F)cc21 (racemic) [Example 142, (±)-N-[(6-amino-4-ethyl-2-methylpyridin-3-yl)-methyl]-12-(2,4-difluoro-6-methylphenyl)-15-oxatetracyclo[6.6.1.0^2,^7.0^9,1^4] pentadeca-2,4,6,9,11,13-hexaene-4-carboxamide] has an IC50 of 1620 nM.
